Assay results: USRE39125E1, “Swallowing-assistive drink” (Ryukakusan Co. LTD, priority 2000, dated 2006)

Assay: Fluoroscopic video-radiography of taking a barium-filled No. 2 capsule, mouth to stomach
Format: in vivo
Details: patient with difficulty in swallowing; barium-filled No. 2 capsule with about 20 ml of drink
Experimental: First, the purpose of this test was explained to a patient (the person) who had difficulty in swallowing when taking medicines with water, and their consent was acquired.
Next, barium powder was filled up in a No. 2 capsule and the capsule was used as a placebo. The placebo was taken by the patient with about 20 ml of the swallowing-assistive drink of the present invention, while fluoroscopic video-radiographs of the conditions of taking this medicine were taken by scanning from the mouth to the stomach of the patient. The image information obtained was put into a personal computer and the time-course changes were analyzed as still image data of two sheets a second.

## O [water]
  time to move from the mouth to the stomach: about 18 sec
